Test results published in US6632829B2, “Sulfonamides and derivatives thereof that modulate the activity of endothelin” (Texas Biotechnology Corp., priority 1996, dated 2003).
Each block holds one compound with its values, some of them ahead of it.

Legend:
human ETA receptors = target: T1, human ETA receptors (Homo sapiens, UniProt P25101); test: Endothelin binding inhibition, Binding Test #1: competition with 125I-ET-1 for ETA receptors on TE 671 cell membranes
T1 construct: endogenous in cells; host or cells: TE 671 cells (ATCC HTB 139), membrane preparation
T1 sequence (P25101 21-427): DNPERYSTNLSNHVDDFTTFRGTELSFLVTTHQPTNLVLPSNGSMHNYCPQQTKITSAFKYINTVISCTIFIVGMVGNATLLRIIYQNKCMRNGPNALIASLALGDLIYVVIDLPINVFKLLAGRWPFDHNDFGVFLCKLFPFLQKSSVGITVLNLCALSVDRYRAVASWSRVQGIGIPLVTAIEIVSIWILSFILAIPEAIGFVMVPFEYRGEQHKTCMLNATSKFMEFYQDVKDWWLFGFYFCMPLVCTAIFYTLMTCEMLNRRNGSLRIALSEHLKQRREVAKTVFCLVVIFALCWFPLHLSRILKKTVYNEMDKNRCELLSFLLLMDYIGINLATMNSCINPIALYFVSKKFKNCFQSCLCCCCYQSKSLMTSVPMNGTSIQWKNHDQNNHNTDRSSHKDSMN

human ETB receptor = target: T2, human ETB receptor (Homo sapiens, UniProt P24530); test: Endothelin binding inhibition, Binding Test #2: competition with 125I-ET-1 for ETB receptors on transfected COS7 cell membranes; conditions: for inhibition at 100 µM: read-out: ETB % inhibition @ 100 μM, @ 100 μM, incubation at 24° C.
T2 construct: expressed in transfected cells; host or cells: COS7 cells
T2 sequence (P24530 27-442): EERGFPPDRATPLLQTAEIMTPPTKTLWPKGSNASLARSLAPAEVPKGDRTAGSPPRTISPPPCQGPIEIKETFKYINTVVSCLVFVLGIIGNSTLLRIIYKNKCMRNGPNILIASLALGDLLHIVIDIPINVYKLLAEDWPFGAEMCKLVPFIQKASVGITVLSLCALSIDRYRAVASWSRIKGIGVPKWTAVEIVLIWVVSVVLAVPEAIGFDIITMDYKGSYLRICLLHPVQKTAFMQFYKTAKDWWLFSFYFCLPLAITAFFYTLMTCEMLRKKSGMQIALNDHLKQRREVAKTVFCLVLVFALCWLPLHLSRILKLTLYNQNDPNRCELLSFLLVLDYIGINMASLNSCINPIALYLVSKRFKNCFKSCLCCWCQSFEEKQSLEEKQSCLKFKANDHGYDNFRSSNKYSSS
Procedure, shortened: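 Membranes from COS7 cells transfected with human ETB receptor, prepared in HEPES pH 7.4 with aprotinin, MnCl2/DNase treatment at 37° C for 30 min. Test compounds compete with 125I-labeled ET-1 for receptor binding; membrane used at 1 μg/50 μL binding buffer.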

[1] = incubation at 24° C. (values marked †)
[2] = incubation at 4° C. (values without †)

SMILES: Cc1cccc(OC(=O)c2sccc2S(=O)(=O)Nc2onc(C)c2Br)c1 [N-(4-bromo-3-methyl-5-isoxazolyl)-2-[(3-methylphenoxy)carbonyl]thiophene-3-sulfonamide]
IC50 (human ETA receptors; [1]): 1200 nM
IC50 (human ETB receptor; [1]): 111000 nM

SMILES: Cc1noc(NS(=O)(=O)c2ccsc2C(=O)Nc2cc3c(cc2CC(=O)N(C)C)OCO3)c1Cl [N-(4-chloro-3-methyl-5-isoxazolyl)-2-{2-[(dimethylamino)carbonylmethyl]-4,5-(methylenedioxy)phenylaminocarbonyl}thiophene-3-sulfonamide]
IC50 (human ETA receptors; [1]): 9 nM
IC50 (human ETB receptor; [1]): 13800 nM

SMILES: Cc1ccc(NC(=O)c2sccc2S(=O)(=O)Nc2onc(C)c2C)cc1 [N-(3,4-dimethyl-5-isoxazolyl)-2-[(4-methylphenyl)aminocarbonyl]thiophene-3-sulfonamide]
IC50 (human ETA receptors; [2]): 3.36 nM
IC50 (human ETB receptor; [2]): 11300 nM

SMILES: COc1ccccc1OC(=O)c1sccc1S(=O)(=O)Nc1onc(C)c1Br [N-(4-bromo-3-methyl-5-isoxazolyl)-2-[(2-methoxylphenoxy)carbonyl]thiophene-3-sulfonamide]
IC50 (human ETA receptors; [1]): 761 nM
inhibition at 100 µM (human ETB receptor): 29%

SMILES: Cc1noc(NS(=O)(=O)c2ccsc2C(=O)Cc2ccc3c(c2)OCO3)c1C [N-(3,4-dimethyl-5-isoxazolyl)-2-[3,4-(methylenedioxy)phenylacetyl]thiophene-3-sulfonamide]
IC50 (human ETA receptors; [1]): 27.3 nM
IC50 (human ETB receptor; [1]): 12200 nM

SMILES: Cc1noc(NS(=O)(=O)c2ccc(-c3cc4ccccc4s3)s2)c1Br [N-(4-bromo-3-methyl-5-isoxazolyl)-5-(benzo[b]thien-2-yl)thiophene-2-sulfonamide]
IC50 (human ETA receptors; [1]): 16000 nM
IC50 (human ETB receptor; [1]): 800 nM

SMILES: Cc1ccc(CCc2sccc2S(=O)(=O)Nc2onc(C)c2Br)c(C)c1 [N-(4-bromo-3-methyl-5-isoxazolyl)-2-(2,4-dimethylphenethyl)thiophene-3-sulfonamide]
IC50 (human ETA receptors; [1]): 55.5 nM
IC50 (human ETB receptor; [1]): 3480 nM

SMILES: Cc1cc(C)c(NC(=O)c2sccc2S(=O)(=O)Nc2onc(C)c2Cl)c(C)c1 [N-(4-chloro-3-methyl-5-isoxazolyl)-2-(2,4,6-trimethylphenylaminocarbonyl)thiophene-3-sulfonamide]
IC50 (human ETA receptors; [1]): 1.6 nM
IC50 (human ETB receptor; [1]): 11300 nM

SMILES: Cc1noc(NS(=O)(=O)c2ccsc2N)c1Cl [N-(4-chloro-3-methyl-5-isoxazolyl)-2-aminothiophene-3-sulfonamide]
IC50 (human ETA receptors; [1]): 14000 nM
IC50 (human ETB receptor; [1]): 6200 nM

SMILES: Cc1noc(NS(=O)(=O)c2ccsc2CO)c1Br [N-(4-bromo-3-methyl-5-isoxazolyl)-2-(hydroxymethyl)thiophene-3-sulfonamide]
IC50 (human ETA receptors; [2]): 160 nM
IC50 (human ETA receptors; [1]): 1550 nM
IC50 (human ETB receptor; [2]): 44100 nM

SMILES: Cc1noc(NS(=O)(=O)c2ccsc2C(=O)OCc2ccc3c(c2)OCO3)c1Cl [N-(4-chloro-3-methyl-5-isoxazolyl)-2-[3,4-(methylenedioxy)benzyloxycarbonyl]thiophene-3-sulfonamide]
IC50 (human ETA receptors; [1]): 420 nM
IC50 (human ETB receptor; [1]): 12000 nM

SMILES: Cc1noc(NS(=O)(=O)c2ccsc2C(=O)Cc2cc3c(cc2C#N)OCO3)c1Cl [N-(4-chloro-3-methyl-5-isoxazolyl)-2-[2-cyano-4,5-(methylenedioxy)phenylacetyl]thiophene-3-sulfonamide]
IC50 (human ETA receptors; [1]): ~300 nM
IC50 (human ETB receptor; [1]): ~700 nM

SMILES: Cc1ccc(OCc2ccsc2S(=O)(=O)Nc2onc(C)c2Br)cc1 [N-(4-bromo-3-methyl-5-isoxazolyl)-3-[(4-methylphenoxy)methyl]thiophene-2-sulfonamide]
IC50 (human ETA receptors; [1]): 1640 nM
IC50 (human ETB receptor; [1]): 22800 nM

SMILES: Cc1ccc(CC(=O)c2sccc2S(=O)(=O)Nc2onc(C)c2C)c(C)c1 [N-(3,4-dimethyl-5-isoxazolyl)-2-(2,4-dimethylphenylacetyl)thiophene-3-sulfonamide]
IC50 (human ETA receptors; [1]): 2.7 nM
IC50 (human ETB receptor; [1]): 17400 nM

SMILES: CC(=O)OCc1c(C)cc(C)c(NC(=O)c2sccc2S(=O)(=O)Nc2onc(C)c2C)c1C [N-(3,4-dimethyl-5-isoxazolyl)-2-(3-acetoxymethyl-2,4,6-trimethylphenylaminocarbonyl)thiophene-3-sulfonamide]
IC50 (human ETA receptors; [1]): 0.97 nM
IC50 (human ETB receptor; [1]): 156000 nM

SMILES: Cc1noc(NS(=O)(=O)c2c(Cc3ccc(N(C)C)cc3)sc3ccccc23)c1Cl [N-(4-chloro-3-methyl-5-isoxazolyl)-2-(4-dimethylaminobenzyl)benzo[b]thiophene-3-sulfonamide]
IC50 (human ETA receptors; [2]): 14 nM
IC50 (human ETA receptors; [1]): 41 nM
IC50 (human ETB receptor; [2]): 477 nM
IC50 (human ETB receptor; [1]): 1300 nM

The remaining lines, values ahead:

IC50 (human ETA receptors; [1]): 346 nM
IC50 (human ETB receptor; [1]): 7450 nM
SMILES: Cc1ccc(OCc2ccsc2S(=O)(=O)Nc2onc(C)c2Br)c(C)c1 [N-(4-bromo-3-methyl-5-isoxazolyl)-3-[(2,4-dimethylphenoxy)methyl]thiophene-2-sulfonamide]

IC50 (human ETA receptors; [1]): 46.8 nM
IC50 (human ETB receptor; [1]): 3630 nM
SMILES: CCCc1ccc(-c2ccsc2S(=O)(=O)Nc2onc(C)c2Br)c(C)c1 [N-(4-bromo-3-methyl-5-isoxazolyl)-3-(2-methyl-4-propylphenyl)thiophene-2-sulfonamide]

IC50 (human ETA receptors; [1]): 190 nM
IC50 (human ETB receptor; [1]): 2200 nM
SMILES: COc1ccccc1Cc1sc2ccccc2c1S(=O)(=O)Nc1onc(C)c1Br [N-(4-bromo-3-methyl-5-isoxozolyl)-2-(2-methoxybenzyl)-benzo[b]thiophene-3-sulfonamide]

IC50 (human ETA receptors; [1]): 23 nM
IC50 (human ETB receptor; [1]): 43700 nM
SMILES: Cc1ccc(NC(=O)c2sccc2S(=O)(=O)Nc2onc(C)c2Cl)nc1 [N-(4-chloro-3-methyl-5-isoxazolyl)-2-[(3-methyl-6-pyridyl)aminocarbonyl]thiophene-3-sulfonamide]

IC50 (human ETA receptors; [1]): 55 nM
IC50 (human ETB receptor; [1]): 1620 nM
SMILES: Cc1cc(C)c(CCc2ccsc2S(=O)(=O)Nc2onc(C)c2Br)c(C)c1 [N-(4-bromo-3-methyl-5-isoxazolyl)-3-(2,4,6-trimethylphenethyl)thiophene-2-sulfonamide]

IC50 (human ETA receptors; [1]): 46.8 nM
IC50 (human ETB receptor; [1]): 1660 nM
SMILES: Cc1cc(CC(C)C)ccc1-c1ccsc1S(=O)(=O)Nc1onc(C)c1Br [N-(4-bromo-3-methyl-5-isoxazolyl)-3-(4-iso-butyl-2-methylphenyl)thiophene-2-sulfonamide]

IC50 (human ETA receptors; [2]): 1.16 nM
IC50 (human ETA receptors; [1]): 10.5 nM
IC50 (human ETB receptor; [2]): 2930 nM
IC50 (human ETB receptor; [1]): 14000 nM
SMILES: Cc1ccc(NC(=O)c2sccc2S(=O)(=O)Nc2onc(C)c2Cl)cc1 [N-(4-chloro-3-methyl-5-isoxazolyl)-2-[(4-tolyl)aminocarbonyl]thiophene-3-sulfonamide]

IC50 (human ETA receptors; [1]): 150 nM
IC50 (human ETB receptor; [1]): 22000 nM
SMILES: CCc1oc2ccccc2c1S(=O)(=O)Nc1onc(C)c1Cl [N-(4-chloro-3-methyl-5-isoxazolyl)-2-ethylbenzo[b]furan-3-sulfonamide]

IC50 (human ETA receptors; [2]): 631 nM
IC50 (human ETB receptor; [2]): 53200 nM
SMILES: COC(=O)c1sccc1S(=O)(=O)Nc1onc(C)c1Cl [N-(4-chloro-3-methyl-5-isoxazolyl)-2-methoxycarbonylthiophene-3-sulfonamide]

IC50 (human ETA receptors; [1]): 45.7 nM
IC50 (human ETB receptor; [1]): 4680 nM
SMILES: Cc1cc(C)c(OCc2ccsc2S(=O)(=O)Nc2onc(C)c2Br)c(C)c1 [N-(4-bromo-3-methyl-5-isoxazolyl)-3-[(2,4,6-trimethylphenoxy)methyl]thiophene-2-sulfonamide]

IC50 (human ETA receptors; [1]): 3.9 nM
IC50 (human ETB receptor; [1]): 12200 nM
SMILES: COc1cc(C#N)c(NC(=O)c2sccc2S(=O)(=O)Nc2onc(C)c2Cl)cc1OC [N-(4-chloro-3-methyl-5-isoxazolyl)-2-[{2-cyano-4,5-dimethoxyphenyl)aminocarbonyl]thiophene-3-sulfonamide]

IC50 (human ETA receptors; [1]): 1200 nM
IC50 (human ETB receptor; [1]): 15000 nM
SMILES: Cc1ccc(OCc2sccc2S(=O)(=O)Nc2onc(C)c2Br)cc1 [N-(4-bromo-3-methyl-5-isoxazolyl)-2-[(4-methylphenoxy)methyl]thiophene-3-sulfonamide]

IC50 (human ETA receptors; [1]): 51 nM
IC50 (human ETB receptor; [1]): 1500 nM
SMILES: COc1ccc(Cc2sc3ccccc3c2S(=O)(=O)Nc2onc(C)c2Br)cc1 [N-(4-bromo-3-methyl-5-isoxazolyl)-2-(4-methoxybenzyl)benzo[b]thiophene-3-sulfonamide]

IC50 (human ETA receptors; [1]): 2850 nM
inhibition at 100 µM (human ETB receptor): 31%
SMILES: Cc1noc(NS(=O)(=O)c2ccsc2C(=O)Oc2ccccc2)c1C [N-(3,4-dimethyl-5-isoxazolyl)-2-(phenoxycarbonyl)thiophene-3-sulfonamide]

IC50 (human ETA receptors; [1]): 4410 nM
inhibition at 100 µM (human ETB receptor): 31%
SMILES: Cc1noc(NS(=O)(=O)c2ccsc2C(=O)Oc2ccccc2)c1Cl [N-(4-chloro-3-methyl-5-isoxazolyl)-2-(phenoxycarbonyl)thiophene-3-sulfonamide]

IC50 (human ETA receptors; [1]): 6.5 nM
IC50 (human ETB receptor; [1]): 7400 nM
SMILES: Cc1noc(NS(=O)(=O)c2ccsc2C(=O)Oc2ccc3c(c2)OCO3)c1Cl [N-(4-chloro-3-methyl-5-isoxazolyl)-2-[3,4-(methylenedioxy)phenoxycarbonyl]thiophene-3-sulfonamide]

IC50 (human ETA receptors; [1]): 155 nM
IC50 (human ETB receptor; [1]): 3310 nM
SMILES: Cc1noc(NS(=O)(=O)c2sccc2-c2ccc(CCC(C)C)cc2)c1Br [N-(4-bromo-3-methyl-5-isoxazolyl)-3-(4-iso-pentylphenyl)thiophene-2-sulfonamide]
